According to patent US10711004B2 (Genentech, Inc., priority 2018, dated 2020):
Where two headings read alike, the source gives them in different places.

Biological target: human TRPA1 channel (Homo sapiens (Human), UniProt O75762)
Test: hTRPA1 CHO Ca2+ FLIPR Tetra assay, block of cinnamaldehyde induced calcium influx
Assay type: cell-based
Conditions: for IC50: CHO cells expressing TRPA1, Hill coefficient fixed to 1.5; for TRPA1 IC50 compared with 3-azabicyclo[3.1.0]hexene linker and cyclobutylene linker analogues: bicyclo[3.1.0]hexene linker compounds versus same-substituent analogues (compounds 16, 191; 26, 1)
Procedure: CHO cells expressing TRPA1 were plated into 384-well plates, incubated overnight at 37° C., and loaded with BD calcium indicator dye for 1 hr at 37° C. followed by 15 minutes at room temperature. The assay buffer was Hank's Balanced Salt Solution (HBSS) containing 20 mM HEPES (pH readjusted to 7.4) along with 0.02% BSA.
Following dye load and plate cool down, compounds were added to the cells using FLIPR Tetra. Plates were then incubated with compounds for 10 minutes or 90 minutes at room temperature prior to adding agonist. Following this incubation, about an EC50 concentration of cinnamaldehyde (75) was added to active the channels and block of cinnamaldehyde induced calcium influx was measured.
Fixing the Hill coefficient will generally reduce variability of the IC50 determination. The IC50 results were individually examined to make sure the MIN and MAX points were set correctly prior to validation of the results.

[1] = read-out: hTRPA1 IC50 (10 min), compounds incubated 10 minutes at room temperature before cinnamaldehyde agonist
[2] = read-out: hTRPA1 IC50 (90 min), compounds incubated 90 minutes at room temperature before cinnamaldehyde agonist

Chain of human TRPA1 channel (O75762 whole entry): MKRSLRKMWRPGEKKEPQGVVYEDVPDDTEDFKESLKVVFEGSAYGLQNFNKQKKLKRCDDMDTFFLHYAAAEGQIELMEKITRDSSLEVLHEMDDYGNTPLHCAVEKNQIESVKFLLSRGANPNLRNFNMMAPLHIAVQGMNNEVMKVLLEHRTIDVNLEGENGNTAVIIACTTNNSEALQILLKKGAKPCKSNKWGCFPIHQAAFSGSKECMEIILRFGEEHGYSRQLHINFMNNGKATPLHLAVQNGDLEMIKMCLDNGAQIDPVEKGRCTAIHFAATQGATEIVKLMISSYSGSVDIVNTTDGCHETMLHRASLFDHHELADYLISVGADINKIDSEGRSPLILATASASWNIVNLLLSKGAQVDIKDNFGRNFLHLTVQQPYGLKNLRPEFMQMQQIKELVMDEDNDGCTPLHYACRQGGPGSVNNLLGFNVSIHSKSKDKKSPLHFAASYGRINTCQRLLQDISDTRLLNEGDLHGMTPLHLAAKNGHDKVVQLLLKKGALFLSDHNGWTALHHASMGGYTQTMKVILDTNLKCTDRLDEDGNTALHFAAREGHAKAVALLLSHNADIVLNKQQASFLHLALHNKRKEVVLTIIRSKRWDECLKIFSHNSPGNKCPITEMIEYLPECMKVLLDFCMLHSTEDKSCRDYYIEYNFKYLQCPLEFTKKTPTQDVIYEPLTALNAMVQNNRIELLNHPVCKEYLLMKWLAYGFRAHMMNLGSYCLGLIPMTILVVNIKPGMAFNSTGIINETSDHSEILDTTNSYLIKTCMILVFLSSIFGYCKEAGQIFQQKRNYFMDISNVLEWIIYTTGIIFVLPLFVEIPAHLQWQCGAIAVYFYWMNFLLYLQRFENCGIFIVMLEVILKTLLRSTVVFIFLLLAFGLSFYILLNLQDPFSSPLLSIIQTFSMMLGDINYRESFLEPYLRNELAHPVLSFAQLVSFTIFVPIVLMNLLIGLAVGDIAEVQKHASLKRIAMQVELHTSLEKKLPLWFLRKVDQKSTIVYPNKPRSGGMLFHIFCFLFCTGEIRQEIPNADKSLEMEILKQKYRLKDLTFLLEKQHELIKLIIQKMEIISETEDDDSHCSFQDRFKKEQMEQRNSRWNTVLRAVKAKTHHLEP

Cn1cnc2ncn(Cc3nc([C@H]4[C@@H]5CN(c6cccc(F)c6F)C[C@@H]54)no3)c(=O)c21 [Example Compound 100, 1-((3-((1R,5S,6r)-3-(2,3-difluorophenyl)-3-azabicyclo[3.1.0]hexan-6-yl)-1,2,4-oxadiazol-5-yl)methyl)-7-methyl-1,7-dihydro-6H-purin-6-one]
IC50 [1]: 0.0128 µM
IC50 [2]: 0.0025 µM

Cn1cnc2ncn(Cc3nc([C@H]4C[C@H](C(=O)c5cccc(Cl)c5)C4)no3)c(=O)c21 [Example Compound 101, 1-((3-((1r,3r)-3-(3-chlorobenzoyl)cyclobutyl)-1,2,4-oxadiazol-5-yl)methyl)-7-methyl-1,7-dihydro-6H-purin-6-one]
IC50 [1]: 0.117 µM
IC50 [2]: 0.064 µM

Cn1cnc2ncn(Cc3nc([C@@H]4[C@H]5C=C(c6cccc(C(F)F)c6)C[C@H]54)no3)c(=O)c21 [Example Compound 102, 1-((3-((1R,5R,6S)-3-(3-(difluoromethyl)phenyl)bicyclo[3.1.0]hex-2-en-6-yl)-1,2,4-oxadiazol-5-yl)methyl)-7-methyl-1,7-dihydro-6H-purin-6-one]
IC50 [1]: 0.0495 µM
IC50 [2]: 0.037 µM

Cn1cnc2ncn(Cc3nc([C@H]4[C@@H]5C=C(c6cccc(C(F)F)c6)C[C@@H]54)no3)c(=O)c21 [Example Compound 103, 1-((3-((1S,5S,6R)-3-(3-(difluoromethyl)phenyl)bicyclo[3.1.0]hex-2-en-6-yl)-1,2,4-oxadiazol-5-yl)methyl)-7-methyl-1,7-dihydro-6H-purin-6-one]
IC50 [1]: 0.0319 µM
IC50 [2]: 0.026 µM

Cc1noc2ncn(Cc3nc([C@H]4[C@@H]5CN(c6cc(Cl)ccn6)C[C@@H]54)no3)c(=O)c12 [Example Compound 104, 5-((3-((1R,5S,6r)-3-(4-chloropyridin-2-yl)-3-azabicyclo[3.1.0]hexan-6-yl)-1,2,4-oxadiazol-5-yl)methyl)-3-methylisoxazolo[5,4-d]pyrimidin-4(5H)-one]
IC50 [1]: 0.043 µM
IC50 [2]: 0.03 µM

Cn1cnc2ncn(Cc3nc([C@H]4[C@@H]5CN(c6ccc(F)c(F)c6)C[C@@H]54)no3)c(=O)c21 [Example Compound 105, 1-((3-((1R,5S,6r)-3-(3,4-difluorophenyl)-3-azabicyclo[3.1.0]hexan-6-yl)-1,2,4-oxadiazol-5-yl)methyl)-7-methyl-1,7-dihydro-6H-purin-6-one]
IC50 [1]: 0.0215 µM
IC50 [2]: 0.0039 µM

Cn1nnc2ncn(Cc3nc([C@@H]4CC[C@@H](c5ccc(F)cc5)C4)no3)c(=O)c21 [Example Compound 106, 6-((3-((1R,3R)-3-(4-fluorophenyl)cyclopentyl)-1,2,4-oxadiazol-5-yl)methyl)-1-methyl-1,6-dihydro-7H-[1,2,3]triazolo[4,5-d]pyrimidin-7-one]
IC50 [1]: 0.0403 µM
IC50 [2]: 0.044 µM

Cc1cc(C#N)nc2ncn(Cc3nc([C@H]4[C@@H]5CN(c6cc(Cl)ccn6)C[C@@H]54)no3)c(=O)c12 [Example Compound 107, 3-((3-((1R,5S,6r)-3-(4-chloropyridin-2-yl)-3-azabicyclo[3.1.0]hexan-6-yl)-1,2,4-oxadiazol-5-yl)methyl)-5-methyl-4-oxo-3,4-dihydropyrido[2,3-d]pyrimidine-7-carbonitrile]
IC50 [1]: 0.049 µM
IC50 [2]: 0.0091 µM

Cn1nnc2ncn(Cc3nc([C@H]4[C@@H]5C=C(c6ccccc6)C[C@@H]54)no3)c(=O)c21 [Example Compound 108, 1-methyl-6-((3-((1 S,5 S,6R)-3-phenylbicyclo[3.1.0]hex-2-en-6-yl)-1,2,4-oxadiazol-5-yl)methyl)-1,6-dihydro-7H-[1,2,3]triazolo[4,5-d]pyrimidin-7-one]
IC50 [1]: 0.00612 µM
IC50 [2]: 0.0031 µM

Cn1nnc2ncn(Cc3nc([C@@H]4[C@H]5C=C(c6ccccc6)C[C@H]54)no3)c(=O)c21 [Example Compound 109, 1-methyl-6-((3-((1R,5R,6S)-3-phenylbicyclo[3.1.0]hex-2-en-6-yl)-1,2,4-oxadiazol-5-yl)methyl)-1,6-dihydro-7H-[1,2,3]triazolo[4,5-d]pyrimidin-7-one]
IC50 [1]: 0.0104 µM
IC50 [2]: 0.0041 µM

Cn1cnc2ncn(Cc3nc([C@@H]4[C@H]5C=C(c6ccc(F)cn6)C[C@H]54)no3)c(=O)c21 [Example Compound 110, 1-((3-((1R,5R,6S)-3-(5-fluoropyridin-2-yl)bicyclo[3.1.0]hex-2-en-6-yl)-1,2,4-oxadiazol-5-yl)methyl)-7-methyl-1,7-dihydro-6H-purin-6-one]
IC50 [1]: 0.064 µM
IC50 [2]: 0.027 µM

Cn1cnc2ncn(Cc3nc([C@H]4[C@@H]5C=C(c6ccc(F)cn6)C[C@@H]54)no3)c(=O)c21 [Example Compound 111, 1-((3-((1S,5S,6R)-3-(5-fluoropyridin-2-yl)bicyclo[3.1.0]hex-2-en-6-yl)-1,2,4-oxadiazol-5-yl)methyl)-7-methyl-1,7-dihydro-6H-purin-6-one]
IC50 [1]: 0.116 µM
IC50 [2]: 0.078 µM

Cn1cnc2ncn(Cc3nc([C@H]4[C@@H]5C=C(c6ccc7scnc7c6)C[C@@H]54)no3)c(=O)c21 [Example Compound 112, 1-((3-((1S,5S,6R)-3-(benzo[d]thiazol-5-yl)bicyclo[3.1.0]hex-2-en-6-yl)-1,2,4-oxadiazol-5-yl)methyl)-7-methyl-1,7-dihydro-6H-purin-6-one]
IC50 [1]: 0.036 µM
IC50 [2]: 0.024 µM

Cn1cnc2ncn(Cc3nc([C@@H]4[C@H]5C=C(c6ccc7scnc7c6)C[C@H]54)no3)c(=O)c21 [Example Compound 113, 1-((3-((1R,5R,6S)-3-(benzo[d]thiazol-5-yl)bicyclo[3.1.0]hex-2-en-6-yl)-1,2,4-oxadiazol-5-yl)methyl)-7-methyl-1,7-dihydro-6H-purin-6-one]
IC50 [1]: 0.0362 µM
IC50 [2]: 0.034 µM

Cn1cnc2ncn(Cc3nc([C@H]4[C@@H]5C=C(c6cccc(F)c6)C[C@@H]54)no3)c(=O)c21 [Example Compound 114, 1-((3-((1S,5S,6R)-3-(3-fluorophenyl)bicyclo[3.1.0]hex-2-en-6-yl)-1,2,4-oxadiazol-5-yl)methyl)-7-methyl-1,7-dihydro-6H-purin-6-one]
TRPA1 IC50 compared with 3-azabicyclo[3.1.0]hexene linker and cyclobutylene linker analogues: improved TRPA1 IC50 values
IC50 [1]: 0.0064 µM
IC50 [2]: 0.0017 µM

Cn1cnc2ncn(Cc3nc([C@@H]4[C@H]5C=C(c6cccc(F)c6)C[C@H]54)no3)c(=O)c21 [Example Compound 115, 1-((3-((1R,5R,6S)-3-(3-fluorophenyl)bicyclo[3.1.0]hex-2-en-6-yl)-1,2,4-oxadiazol-5-yl)methyl)-7-methyl-1,7-dihydro-6H-purin-6-one]
TRPA1 IC50 compared with 3-azabicyclo[3.1.0]hexene linker and cyclobutylene linker analogues: improved TRPA1 IC50 values
IC50 [1]: 0.00973 µM
IC50 [2]: 0.0023 µM

Cc1ncn2ncn(Cc3nc([C@H]4[C@@H]5CN(c6cc(Cl)ccn6)C[C@@H]54)no3)c(=O)c12 [Example Compound 116, 3-((3-((1R,5S,6r)-3-(4-chloropyridin-2-yl)-3-azabicyclo[3.1.0]hexan-6-yl)-1,2,4-oxadiazol-5-yl)methyl)-5-methylimidazo[5,1-f][1,2,4]triazin-4(3H)-one]
IC50 [1]: 0.0611 µM
IC50 [2]: 0.05 µM

Cc1cnn2ncn(Cc3nc([C@H]4[C@@H]5CN(c6cc(F)ccn6)C[C@@H]54)no3)c(=O)c12 [Example Compound 117, 3-((3-((1R,5S,6r)-3-(4-fluoropyridin-2-yl)-3-azabicyclo[3.1.0]hexan-6-yl)-1,2,4-oxadiazol-5-yl)methyl)-5-methylpyrazolo[5,1-f][1,2,4]triazin-4(3H)-one]
IC50 [1]: 0.0192 µM
IC50 [2]: 0.0075 µM
